Reference: the OPERA property sets (Mansouri et al. 2018)
Converted amounts (≈) assume the structure as drawn.

Conditions: 20 °C

| SMILES | solubility [µM] |
| --- | --- |
| CNC(=O)Oc1cc(C)c(SC)c(C)c1 | 72.9 (≈ 16.4 µg/mL) |
| CCN(C(=O)SCc1ccccc1)C(C)C(C)C (stereo not given) | 18.5 (≈ 4.9 µg/mL) |
| CN(C(O)=NC(C)(C)c1ccccc1)c1ccccc1 | 447 (≈ 120 µg/mL) |
| CC(Oc1ccc(Oc2cnc3cc(Cl)ccc3n2)cc1)C(=O)O (stereo not given) | 0.87 (≈ 0.3 µg/mL) |
| CCOC(=O)c1cnn(C)c1S(=O)(=O)NC(=O)Nc1nc(OC)cc(OC)n1 | 35 (≈ 14.5 µg/mL) |
| Cc1ccccc1C(=O)Nc1cccc(OC(C)C)c1 | 47.2 (≈ 12.7 µg/mL) |
| CCOP(=O)(Oc1ccc(Cl)cc1Cl)Oc1ccc(Cl)cc1Cl | 1.68 (≈ 0.7 µg/mL) |
| CNC(=O)Oc1ccccc1OC(CCl)OC (stereo not given) | 5010 (≈ 1300 µg/mL) |
| CC#Cc1cc(C)nc(Nc2ccccc2)n1 | 13.9 (≈ 3.1 µg/mL) |
| CNC(=O)Oc1ccc(C)c(C)c1 | 7250 (≈ 1300 µg/mL) |
| COc1cccc(N(C)C(=S)Oc2cccc(C(C)(C)C)c2)n1 | 0.968 (≈ 0.32 µg/mL) |
| C=CCNC(=O)CN(CC=C)C(=O)C(Cl)Cl | 91300 (≈ 24200 µg/mL) |
| COP(=O)(OC)O/C(=C\Cl)c1ccc(Cl)cc1Cl | 392 (≈ 130 µg/mL) |
| Cc1cnc2c(C(=O)O)c(Cl)ccc2c1 | 1010 (≈ 223 µg/mL) |
| Cc1nn(C)c(OCC(=O)c2ccccc2)c1C(=O)c1ccc(Cl)cc1Cl | 2230 (≈ 900 µg/mL) |
| NCCO.O=C(Nc1ccc([N+](=O)[O-])cc1Cl)c1cc(Cl)ccc1O | 258 |
| CC1COc2ccccc2N1C(=O)C(Cl)Cl (stereo not given) | 76.9 (≈ 20 µg/mL) |
| O=C1c2ccccc2C(=O)C1C(=O)C(c1ccccc1)c1ccc(Cl)cc1 (stereo not given) | 267 (≈ 100 µg/mL) |
| CC(C)(C)[C@@H](O)[C@@H](Cc1ccc(Cl)cc1)n1cncn1 (single isomer, unassigned) | 103 (≈ 30.2 µg/mL) |
| CN(C)S(=O)(=O)N(SC(F)(Cl)Cl)c1ccccc1 | 3.9 (≈ 1.3 µg/mL) |
| COC(=O)/C(C)=C/OP(=S)(OC)OC | 1670 (≈ 400 µg/mL) |
| CCCCOC(=O)C1(O)c2ccccc2-c2ccccc21 | 129 (≈ 36.5 µg/mL) |
| CSc1nnc(C(C)(C)C)c(=O)n1N | 5280 (≈ 1130 µg/mL) |
| CC(C)C(O)(c1ccc(OC(F)(F)F)cc1)c1cncnc1 (stereo not given) | 365 (≈ 114 µg/mL) |
| CCNC(=O)C(C)OC(=O)Nc1ccccc1 (stereo not given) | 14800 (≈ 3500 µg/mL) |
| O=C(O)CCCc1c[nH]c2ccccc12 | 1230 (≈ 250 µg/mL) |
| CCc1cccc(C)c1N(COC(C)C)C(=O)CCl | 648 (≈ 184 µg/mL) |

Same assay, conditions: 23 °C

| SMILES | solubility [µM] |
| --- | --- |
| CCN(CC)C(=O)SCc1ccccc1Cl | 93.1 (≈ 24 µg/mL) |

Same assay, conditions: 25 °C

| SMILES | solubility [µM] |
| --- | --- |
| O=C(OCc1ccccc1)c1sc(Cl)nc1C(F)(F)F | 1.55 (≈ 0.5 µg/mL) |
| Oc1ccccc1-c1ccccc1 | 4110 (≈ 700 µg/mL) |
| COc1ccc(NC(=O)N(C)C)cc1Cl | 2620 (≈ 600 µg/mL) |
| CC(C)(C)C(O)/C(=C\c1ccc(Cl)cc1Cl)n1cncn1 (stereo not given) | 12.3 (≈ 4 µg/mL) |
| O=C(O)CCCOc1ccc(Cl)cc1Cl | 213 (≈ 53 µg/mL) |
| CC1=C(C)S(=O)(=O)CCS1(=O)=O | 21900 (≈ 4600 µg/mL) |
| CN(C)NC(=O)CCC(=O)O | 624000 (≈ 100000 µg/mL) |
| Cc1ccc(C(=O)COc2c(C(=O)c3ccc(Cl)c(C)c3Cl)c(C)nn2C)cc1 | 0.301 (≈ 0.13 µg/mL) |
| CCOP(=O)(N=C1SCC(C)S1)OCC (stereo not given) | 212 (≈ 57 µg/mL) |
| Cc1cnc(C2=NC(=O)C(C)(C(C)C)N2)c(C(=O)O)c1 (stereo not given) | 8110 (≈ 2230 µg/mL) |
| O=C1OCc2c(Cl)c(Cl)c(Cl)c(Cl)c21 | 9.19 (≈ 2.5 µg/mL) |
| C#CCC1=C(C)C(OC(=O)C2C(C=C(C)C)C2(C)C)CC1=O (stereo not given) | 26.6 (≈ 8 µg/mL) |
| COc1nc(NC(C)C)nc(NC(C)C)n1 | 3330 (≈ 750 µg/mL) |
| COP(=S)(OC)Oc1c(Cl)cc(C)cc1Cl | 2.2 (≈ 0.663 µg/mL) |
| CC(Oc1ccc(Oc2ncc(Cl)cc2Cl)cc1)C(=O)N1CCCO1 (stereo not given) | 25.6 (≈ 9.8 µg/mL) |
| CON(C)C(=O)Nc1ccc(Oc2ccc3c(c2)OC(C)(OC)CC3(C)C)cc1 (stereo not given) | 0.999 (≈ 0.4 µg/mL) |
| CC(Oc1ccc(Oc2cnc3cc(Cl)ccc3n2)cc1)C(=O)OCC1CCCO1 (stereo not given) | 9.33 (≈ 4 µg/mL) |

| SMILES | solubility [µM] |
| --- | --- |
| COCC(C)N(C(=O)CCl)c1c(C)csc1C (stereo not given) | 4350 (≈ 1200 µg/mL) |
| CCCCCOC(=O)COc1cc(N2C(=O)C3=C(CCCC3)C2=O)c(F)cc1Cl | 0.446 (≈ 0.189 µg/mL) |
| O=C(O)c1cc(Oc2ccc(C(F)(F)F)cc2Cl)ccc1[N+](=O)[O-] | 332 (≈ 120 µg/mL) |
| Nc1c(Cl)c(Cl)nc(C(=O)O)c1Cl | 1780 (≈ 430 µg/mL) |
| CCCN(CCC)c1c([N+](=O)[O-])cc(C(F)(F)F)c(N)c1[N+](=O)[O-] | 0.0371 (≈ 0.013 µg/mL) |
| CCCCN(CCCC)SN(C)C(=O)Oc1cccc2c1OC(C)(C)C2 | 0.788 (≈ 0.3 µg/mL) |
| N#Cc1c[nH]cc1-c1cccc(Cl)c1Cl | 20.2 (≈ 4.8 µg/mL) |
| CC(C)C1(C)N=C(c2ncccc2C(=O)O)NC1=O (stereo not given) | 43300 (≈ 11300 µg/mL) |
| O=c1ccc(=O)[nH][nH]1 | 53500 (≈ 6000 µg/mL) |
| CC1(C)CNC(=NN=C(/C=C/c2ccc(C(F)(F)F)cc2)/C=C/c2ccc(C(F)(F)F)cc2)NC1 | 0.0121 (≈ 0.006 µg/mL) |
| CCOC(=O)C1(C)OC(=O)N(c2cc(Cl)cc(Cl)c2)C1=O (stereo not given) | 24.1 (≈ 8 µg/mL) |
| Cc1c(Cl)ccc(OC(C)C(O)=Nc2ccccc2)c1Cl (stereo not given) | 0.0987 (≈ 0.032 µg/mL) |
| CC(C)(N=C(O)C(Br)C(C)(C)C)c1ccccc1 (stereo not given) | 11.3 (≈ 3.54 µg/mL) |
| CCC1OCC(COc2ccc(Oc3ccccc3)cc2)O1 (stereo not given) | 16.3 (≈ 4.9 µg/mL) |
| CCCCOC(=O)N(C)SN(C)C(=O)Oc1cccc2c1OC(C)(C)C2 | 27.4 (≈ 10.5 µg/mL) |
| CCn1cc(C(=O)O)c(=O)c2cc3c(cc21)OCO3 | 12.2 (≈ 3.2 µg/mL) |

Same assay, conditions: 27 °C

| SMILES | solubility [µM] |
| --- | --- |
| CC(Oc1ccc2ccccc2c1)C(O)=Nc1ccccc1 (stereo not given) | 2.57 (≈ 0.75 µg/mL) |
| CN(C)C(=O)C(c1ccccc1)c1ccccc1 | 1090 (≈ 260 µg/mL) |
| C/C=C\COCN(C(=O)CCl)c1c(CC)cccc1CC | 93.6 (≈ 29 µg/mL) |

Same assay, conditions: 30 °C

| SMILES | solubility [µM] |
| --- | --- |
| O=C(Nc1ccc(Cl)cc1C(O)c1ccccc1)c1ccncc1 (stereo not given) | 2.95 (≈ 1 µg/mL) |

Same assay, conditions: pH 5.0; 25 °C

| SMILES | solubility [µM] |
| --- | --- |
| COc1cc(OC)nc(N=C(O)NS(=O)(=O)Nc2ccccc2C(=O)C2CC2)n1 | 0.403 (≈ 0.17 µg/mL) |

Same assay, conditions: pH 6.4; 21 °C

| SMILES | solubility [µM] |
| --- | --- |
| O=C(Nc1ccccc1)Nc1ccnc(Cl)c1 | 157 (≈ 39 µg/mL) |

Same assay, conditions: pH 7.0; 20 °C

| SMILES | solubility [µM] |
| --- | --- |
| OC(Cn1cncn1)(c1ccc(F)cc1)c1ccccc1F (stereo not given) | 431 (≈ 130 µg/mL) |

Same assay, conditions: pH 7.0; 25 °C

| SMILES | solubility [µM] |
| --- | --- |
| OC(c1ccc(F)cc1)(c1cncnc1)c1ccccc1Cl (stereo not given) | 82.6 (≈ 26 µg/mL) |

Same assay, conditions: pH 9.0; 20 °C

| SMILES | solubility [µM] |
| --- | --- |
| Cc1ccc(N=c2sccn2C)c(C)c1 | 687 (≈ 150 µg/mL) |
